“Also recorded” adds a separate entry of the source.
Key:
[1] = tested on: human peripheral blood monocytes; experiment: IL-10 production in human peripheral blood monocytes; assay type: cell-based; details: after 48 h
TLR4 = TLR4 (Homo sapiens, UniProt O00206); experiment: TLR4 inhibitory and activating activity in THP-1 cells at low and high concentrations; assay type: cell-based; design: endogenous in cells; host or cells: THP-1 (human monocytic) cells
[2] = tested on: VEGF induced tube formation in HUVECs; experiment: Anti-angiogenic activity, Tube Formation kit, VEGF induced; assay type: cell-based, human; details: VEGF 100ng/mL
Experimental: Selected TLR2/4 antagonist compounds 2, 6, 7, 8, 14, 17 and 32 were evaluated for anti-angiogenic activity using the Tube Formation kit (Cat#3470-096-K). VEGF (100ng/mL) was used as positive control. These compounds have potential applications in diseases associated with pathological angiogenesis such as solid tumor, […], diabetic retinopathy as well as AMD.

TLR2 = biological target: T1, TLR2 (Homo sapiens, UniProt O60603); experiment: TLR2 activity in PMA-stimulated THP-1 monocyte cells, ELISA of cell lysate; assay type: cell-based; details: THP-1 cells
T1 construct: endogenous in cells; host or cells: THP-1 monocyte cells stimulated with PMA
Experimental: THP-1 monocyte cells (1×10^5) were stimulated with 200nM of PMA for 48h and treated with different concentrations of test compounds. The TLR2 activity was measured after 24 h from the cell lysate using ELISA.

TLR7/8 = TLR7/8 modulation: cytokine ELISA in hPBMC, alone or with TLR7/8 ligand CL075; assay type: cell-based, human
From the text: Compound 8 modulates the TLR7/8 activities in a concentration dependent manner.

hPBMC = experiment: Cytotoxicity in hPBMC, MTT cell proliferation kit; assay type: cell-based, human; details: 0.1, 1.0, 10, 100 and 1000 µM, 24h
Experimental: The cells were treated with compounds and incubated for 24h. Cell viability was assessed using MTT cell proliferation kit (Promega).

TLR9 = biological target: T2, TLR9 (Homo sapiens, UniProt Q9NR96); experiment: TLR9 antagonism: IFN-α ELISA in hPBMC with TLR9 ligand ODN2216; assay type: cell-based; details: in combination with ODN2216, hPBMC, 48h
T2 construct: endogenous in cells; host or cells: hPBMC (human peripheral blood monocytes)
T2 sequence (Q9NR96 26-1032): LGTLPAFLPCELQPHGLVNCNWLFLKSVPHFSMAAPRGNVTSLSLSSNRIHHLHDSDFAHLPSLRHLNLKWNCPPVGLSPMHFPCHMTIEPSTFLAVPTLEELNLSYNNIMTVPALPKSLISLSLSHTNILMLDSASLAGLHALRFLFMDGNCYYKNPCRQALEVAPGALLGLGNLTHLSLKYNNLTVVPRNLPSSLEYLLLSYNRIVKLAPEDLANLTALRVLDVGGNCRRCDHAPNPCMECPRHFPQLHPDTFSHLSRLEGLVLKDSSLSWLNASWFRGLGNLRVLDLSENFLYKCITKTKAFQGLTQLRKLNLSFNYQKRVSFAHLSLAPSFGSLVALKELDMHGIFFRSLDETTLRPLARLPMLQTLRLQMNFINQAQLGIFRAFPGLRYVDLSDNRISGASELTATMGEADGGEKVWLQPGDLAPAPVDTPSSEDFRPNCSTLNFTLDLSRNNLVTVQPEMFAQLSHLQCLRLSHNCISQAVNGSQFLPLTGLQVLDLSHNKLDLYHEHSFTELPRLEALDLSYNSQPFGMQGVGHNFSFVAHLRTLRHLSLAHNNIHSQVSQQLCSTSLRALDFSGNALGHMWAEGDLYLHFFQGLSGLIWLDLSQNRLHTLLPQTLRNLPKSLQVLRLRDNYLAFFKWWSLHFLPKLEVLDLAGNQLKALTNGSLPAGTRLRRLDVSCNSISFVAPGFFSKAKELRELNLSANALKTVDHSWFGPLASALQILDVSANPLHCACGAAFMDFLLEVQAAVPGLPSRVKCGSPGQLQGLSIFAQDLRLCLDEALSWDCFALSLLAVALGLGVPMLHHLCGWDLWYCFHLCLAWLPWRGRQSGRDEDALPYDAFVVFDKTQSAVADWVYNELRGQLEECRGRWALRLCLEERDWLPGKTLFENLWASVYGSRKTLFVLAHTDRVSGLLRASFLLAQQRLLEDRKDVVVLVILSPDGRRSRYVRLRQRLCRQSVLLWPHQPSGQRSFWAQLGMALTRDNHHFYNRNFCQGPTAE
Experimental: Compound 8 antagonizes the TLR9 activities and downregulates the production of IFN-α in combination with TLR9 ligand ODN2216 in hPBMC after 48h of treatment as detected by ELISA (FIG. 11).

TLR1/2 = biological target: T3, TLR1/2 (Homo sapiens, UniProt O60603); experiment: TLR1/2 modulation: IL-6 ELISA in hPBMC with TLR1/2 ligand Pam3CSK4; assay type: cell-based
T3 construct: endogenous in cells; host or cells: hPBMC (human peripheral blood monocytes)
From the text: Compound 8 modulates the TLR1/2 activities in a concentration dependent manner.

HUVECs = experiment: Cytotoxicity in HUVECs, MTT cell proliferation kit; assay type: cell-based, human; details: 100 µM, 24h
Experimental: Selected TLR2/4 antagonist compounds 2, 6, 7, 8, 14, 17 and 32 were evaluated for cytotoxicity in HUVECs at 100 µM concentration. The cells were treated with compounds and incubated for 24h. Cell viability was assessed using MTT cell proliferation kit (Promega). All the compounds were not toxic to HUVECs (FIG. 15).

[3] = tested on: THP-1 (human monocytic) cells; experiment: Cytokine response (IL-1β, TNF-α, IL-10) of THP-1 cells treated with compounds; assay type: cell-based; details: 100-200 µM
Experimental: When THP-1 (human monocytic) cells were treated with 100-200 µM of compounds 8, 14, 17, 23, 29, and 32, they produced an increased IL-1β and TNF-α response, decreased anti-inflammatory cytokine IL-10 (FIG. 4).

[4] = tested on: P. aeruginosa (ATCC-10145 GFP) infected skin wounds; experiment: Murine study of skin wound infection; assay type: in vivo, C57BL6 mice
Experimental: Five groups of C57BL/6 mice (8-10 weeks old, n = 4) were wounded on the dorsal surface. 25µl containing 10^6 CFU/mL P. aeruginosa in a PBS suspension were pipetted onto the wound and allowed to absorb for at least 3 min. […] Subsequently and for the next 13 days, infected wounds were treated each alternate day with colistin, or with test compounds.
Along with that less focal inflammation is observed in compound treated groups vs PA group.

Chain of TLR4 (O00206 24-839): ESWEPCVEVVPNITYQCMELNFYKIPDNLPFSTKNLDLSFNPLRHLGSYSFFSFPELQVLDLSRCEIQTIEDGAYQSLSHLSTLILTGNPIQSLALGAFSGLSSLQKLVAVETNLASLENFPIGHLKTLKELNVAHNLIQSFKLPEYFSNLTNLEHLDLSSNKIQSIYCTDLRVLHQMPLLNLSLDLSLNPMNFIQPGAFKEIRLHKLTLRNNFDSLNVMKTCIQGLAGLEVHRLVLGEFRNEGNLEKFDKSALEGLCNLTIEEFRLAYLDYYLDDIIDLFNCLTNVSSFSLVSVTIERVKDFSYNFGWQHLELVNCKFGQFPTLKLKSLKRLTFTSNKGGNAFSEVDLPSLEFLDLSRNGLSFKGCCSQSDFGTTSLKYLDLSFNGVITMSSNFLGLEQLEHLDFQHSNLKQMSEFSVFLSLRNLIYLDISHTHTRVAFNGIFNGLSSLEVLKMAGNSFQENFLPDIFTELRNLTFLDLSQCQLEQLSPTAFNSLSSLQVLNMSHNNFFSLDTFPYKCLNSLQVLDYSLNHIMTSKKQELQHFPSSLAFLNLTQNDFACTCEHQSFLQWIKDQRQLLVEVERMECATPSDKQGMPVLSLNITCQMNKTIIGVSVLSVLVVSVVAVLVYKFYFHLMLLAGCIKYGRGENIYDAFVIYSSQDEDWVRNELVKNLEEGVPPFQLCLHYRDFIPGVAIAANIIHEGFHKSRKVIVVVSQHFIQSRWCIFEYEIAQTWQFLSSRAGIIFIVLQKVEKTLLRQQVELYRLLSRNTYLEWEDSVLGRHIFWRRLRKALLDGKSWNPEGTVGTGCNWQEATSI
Chain of TLR4 (Q9Y6Y9 17-160 partner limits assumed): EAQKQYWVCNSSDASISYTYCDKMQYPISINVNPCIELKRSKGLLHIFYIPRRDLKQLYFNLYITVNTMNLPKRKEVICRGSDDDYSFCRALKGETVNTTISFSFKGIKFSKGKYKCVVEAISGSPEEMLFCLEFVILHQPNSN
T3 sequence (O60603 21-784): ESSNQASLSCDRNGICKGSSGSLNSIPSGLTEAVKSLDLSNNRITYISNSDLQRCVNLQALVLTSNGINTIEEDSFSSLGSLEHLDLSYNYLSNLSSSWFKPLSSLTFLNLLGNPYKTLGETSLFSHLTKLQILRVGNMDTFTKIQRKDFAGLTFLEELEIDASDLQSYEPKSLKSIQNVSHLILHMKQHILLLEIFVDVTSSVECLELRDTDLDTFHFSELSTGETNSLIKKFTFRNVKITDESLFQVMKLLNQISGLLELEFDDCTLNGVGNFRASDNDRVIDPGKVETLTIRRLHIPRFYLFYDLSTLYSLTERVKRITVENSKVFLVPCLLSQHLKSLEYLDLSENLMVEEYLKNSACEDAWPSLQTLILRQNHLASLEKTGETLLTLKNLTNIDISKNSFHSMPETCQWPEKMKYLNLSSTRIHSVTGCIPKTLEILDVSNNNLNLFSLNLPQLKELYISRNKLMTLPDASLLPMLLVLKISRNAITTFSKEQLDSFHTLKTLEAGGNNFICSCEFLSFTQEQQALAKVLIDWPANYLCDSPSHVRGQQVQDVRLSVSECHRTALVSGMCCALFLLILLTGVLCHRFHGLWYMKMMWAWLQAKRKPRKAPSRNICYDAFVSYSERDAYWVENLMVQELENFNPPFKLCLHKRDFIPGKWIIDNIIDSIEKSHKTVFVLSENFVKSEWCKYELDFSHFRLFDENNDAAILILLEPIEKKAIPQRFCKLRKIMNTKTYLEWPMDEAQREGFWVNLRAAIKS
T1 sequence (O60603 21-784): as above

Q: CC(=O)N[C@H]1[C@H](Oc2ccc([N+](=O)[O-])cc2)O[C@H](CO)[C@@H](O)[C@@H]1O [Compound 8, p-Nitrophenyl 2-acetamido-2-deoxy-β-D-glucopyranoside] was tested. Which IL-10 production ([1]; 0.1-1.0 µM) did it give?
A: increase

Q: And the IL-10 production ([1]; 10-100 µM)?
A: decrease

Q: What about the “% inhibition over control TLR4” value (TLR4; Concentration 1-10 µM, THP-1 cells) of the same compound?
A: +++ (+++ means that the % of inhibition or activation is in the range of 75-95%)

Q: And the “% activation over control TLR4” value (TLR4; Concentration 75-100 µM, THP-1 cells)?
A: ++ (++ means that the % of inhibition or activation is in the range of 25-75%)

Q: And the TLR4 modulatory activity (TLR4; summary in words)?
A: concentration dependent TLR4 modulatory activity

Q: What about the “VEGF induced tube formation” value [2] of the same compound?
A: significantly decreased

Q: And the “% inhibition over control TLR2” value (TLR2; Concentration 1-10 µM)?
A: + (+ means that the % of inhibition or activation is in the range of 15-25%)

Q: And the “% inhibition over control TLR2” value (TLR2; Concentration 75-100 µM)?
A: ++ (++ means that the % of inhibition or activation is in the range of 25-75%)

Q: And the IL-10 protein level (TLR7/8; 0.1 µM to <1 µM, alone or in combination with CL075, hPBMC, 24h, ELISA)?
A: downregulate

Q: And the “production of IL-1β” value (TLR7/8; 1.0 µM, alone and in combination with CL075, hPBMC)?
A: significantly stimulated

Q: What about the “cytotoxicity in hPBMC (cell viability)” value (hPBMC) of the same compound?
A: not toxic

Q: What about the “production of IFN-α” value (TLR9) of the same compound?
A: downregulates

Q: And the IL-6 protein level (TLR1/2; 0.1 µM to <1 µM, in combination with Pam3CSK4, hPBMC, 24h, ELISA)?
A: downregulate

Q: What about the “production of IL-6” value (TLR1/2; 1.0, 10 and 100 µM, in combination with CL075, hPBMC) of the same compound?
A: significantly stimulated

Q: And the “cytotoxicity in HUVECs (cell viability)” value (HUVECs)?
A: not toxic

Q: And the IL-1β response [3]?
A: increased

Q: What about the TNF-α response [3] of the same compound?
A: increased

Q: What about the “anti-inflammatory cytokine IL-10” value [3] of the same compound?
A: decreased

Q: What about the “CFU in tissues / bacterial counts” value ([4]; 13 days post infection, vs untreated control) of the same compound?
A: decreased; also recorded: statistically significant reduction

Q: What about the “Re-epithelialization and granulation tissue” value ([4]; H&E histology, day 13 post-injury, vs controls, p=0.050 (Colistin, compound 1), p=0.073 (compound 8)) of the same compound?
A: borderline non-significant

Q: And the “closure of P. aeruginosa infected skin wounds” value ([4]; topical, each alternate day, day 13, compounds 100µM / 100µg /ml, Colistin 4µg/ml)?
A: effectively closed; also recorded: complete closure
